Results: DBAASP
Converted amounts (≈) assume the structure as drawn.

Legend:
Test in all cases: ≥ marks a high value that may be exact or a test limit, other limits are often not marked, values filed in µg/mL are converted to µM
Acinetobacter sp. = tested on: Acinetobacter sp.
[1] = tested on: Pseudomonas aeruginosa ATCC 25668
[2] = tested on: Escherichia coli ATCC 11775
[3] = tested on: Staphylococcus aureus ATCC 9144
[4] = tested on: Bacillus subtilis ATCC 6633
Escherichia coli = tested on: Escherichia coli

MIC (Acinetobacter sp.): 21.6 µM (≈ 32 µg/mL)
MIC [1]: 5.41 µM (≈ 7.99 µg/mL)
MIC [2]: 0.676 µM (≈ 0.999 µg/mL)
MIC [3]: 2.7 µM (≈ 4 µg/mL)
MIC [4]: 5.41 µM (≈ 7.99 µg/mL)
MIC (Escherichia coli): 2.7 µM (≈ 4 µg/mL)
Structure (SMILES): CC[C@H](C)[C@H](N)C(=O)N[C@@H](CCCCN)C(=O)N[C@@H](Cc1c[nH]c2ccccc12)C(=O)N[C@@H](C)C(=O)NCC(=O)N[C@@H](CCCCN)C(=O)N[C@@H](CC(C)C)C(=O)N[C@@H](Cc1ccccc1)C(=O)N[C@@H](CCCCN)C(=O)N[C@@H](CC(C)C)C(=O)N[C@@H](Cc1ccccc1)C(=O)N[C@@H](CCCCN)C(N)=O [IKWAGKLFKLFK]
